Ten molecules from patent US11420966B2 (ACLARIS THERAPEUTICS, INC., priority 2019, dated 2022) can be followed below.

Assay [1] concerns IL-2 stimulated STAT5 phosphorylation on Tyr694 (JAK1/3). As to the kind of experiment: JAK1/3 cellular target modulation: IL-2 stimulated phospho-STAT5 in PBMC. Conditions: human PBMC, IL-2 25 ng/ml; read-out: IL2-STAT5 IC50. The class given is cell-based. The text has this:
(§1) JAK Cellular Target Modulation Assays
(§2) Target modulation was based upon the ability of a compound to inhibit JAK isoform specific phosphorylation of selected substrates. IL-2 stimulated STAT5 phosphorylation on Tyr694 was used to assess JAK1/3 compound selectivity. GM-CSF stimulated STAT5 phosphorylation on Tyr694 was used to assess JAK2 compound selectivity. IFNγ stimulated STAT1 phosphorylation on Tyr701 was used to assess JAK1/2 compound selectivity. IL-12 stimulated STAT4 phosphorylation on Tyr693 was used to assess JAK2/TYK2 compound selectivity. For all four assays, human PBMC from frozen stocks were thawed, pelleted, resuspended in complete media (90% RPMI, 10% heat inactivated FBS, 10 mM HEPES, 47 μM 2-ME, pen/strep) and placed in wells of a 96 well V-bottom plate at 200,000 per well in 120 μl complete media. Compounds were added as 15 μl per well of 10× working stock solutions in complete media with 1% DMSO (or medium with 1% DMSO for controls) and placed on a plate shaker in a 37° C. incubator with 5% CO2 for 1 hour with gentle shaking (setting of 3). Stimulation used the addition of soluble cytokines. For the JAK1/3 phospho-STAT5 assay, 15 μl of 10× working stock recombinant human IL-2 was added to a final concentration of 25 ng/ml. For the JAK2 phospho-STAT5 assay, 15 μl of 10× working stock recombinant human GM-CSF was added to a final concentration of 5 ng/ml. For the JAK1/2 phospho-STAT1 assay, 15 μl of 10× working stock of recombinant human IFNγ was added to a final concentration of 10 ng/ml. For the JAK2/TYK2 phospho-STAT4 assay, 15 μl of 10× working stock of recombinant human IL-12 was added to a final concentration of 1.7 ng/ml. Plates were then placed back on the plate shaker in the incubator for an additional 5, 5, 10, and 25 minutes respectively upon which the plates were removed from the incubator, sealed with a plate sealer and the cells pelleted at 400×g for 5 minutes. After pelleting, the media was removed by aspiration and the cells were lysed in assay specific cell lysis buffer. The levels of phospho-STATS were determined using a Phospho (Tyr694) STAT5a,b Whole Cell Lysate kit from Meso Scale Discovery. Levels of phospho-STAT1 were determined using a CST-PathScan Phospho-STAT1 (Tyr701) Sandwich ELISA kit. Levels of phospho-STAT4 were determined using a Phospho-STAT4 (Tyr693) Whole Cell Lysate kit from Meso Scale Discovery.

For assay [2], the target named is JAK1 (Homo sapiens (Human), UniProt P23458). Put plainly: JAK1 enzyme activity assay (Thermo Fisher SelectScreen, Z-lyte). The class given is biochemical. The settings on record: read-out: JAK1 Inhibition IC50. As for the experimental part:
(§3) JAK1, JAK2, JAK3, and Tyk-2 Enzyme Activity Assays
(§4) The inhibitory potency of candidate compounds of JAK1, JAK2, and Tyk-2 was done at Thermo Fisher Scientific in their Selectscreen using a Z-lyte assay. Following are the assay details for each enzyme.
JAK: The 2×JAK-enzyme/Tyr 06 mixture is prepared in 50 mM HEPES pH 6.5, 0.01% BRIJ-35, 10 mM MgCl2, 1 mM EGTA, 0.02% NaN3. The final 10 μL of the Kinase Reaction consists of 21.2-91.5 ng JAK and 2 M Tyr 06 in 50 mM HEPES pH 7.0, 0.01% BRIJ-35, 10 mM MgCl2, 1 mM EGTA, 0.01% NaN3. After the one hour Kinase Reaction incubation, 5 μL of a 1:128 dilution of Development Reagent is added.
(§5) Data reduction for JAK1, JAK2 and TYK2 is done the same, independent of the enzyme run. In summary, background signal is defined in the absence of enzyme and uninhibited signal is defined in the presence of vehicle (2% DMSO) alone. Compounds were evaluated in an 11 point dose-response ranging from […] to 0.34 nM. IC50 values of compounds are determined using a 4 parameter logistical fit of emission ratio as a function of the concentration of compound.

Assay [3] deals with JAK3 (a.a. 781-1124) (Homo sapiens (Human), UniProt P52333). As to the kind of experiment: JAK3 enzyme activity assay (SRCtide phosphorylation, Caliper). The class given is biochemical. Conditions: 1 uM ATP; read-out: JAK3 Inhibition IC50. As for the experimental part: as §3
Sequence of JAK3 (a.a. 781-1124) (P52333 781-1124): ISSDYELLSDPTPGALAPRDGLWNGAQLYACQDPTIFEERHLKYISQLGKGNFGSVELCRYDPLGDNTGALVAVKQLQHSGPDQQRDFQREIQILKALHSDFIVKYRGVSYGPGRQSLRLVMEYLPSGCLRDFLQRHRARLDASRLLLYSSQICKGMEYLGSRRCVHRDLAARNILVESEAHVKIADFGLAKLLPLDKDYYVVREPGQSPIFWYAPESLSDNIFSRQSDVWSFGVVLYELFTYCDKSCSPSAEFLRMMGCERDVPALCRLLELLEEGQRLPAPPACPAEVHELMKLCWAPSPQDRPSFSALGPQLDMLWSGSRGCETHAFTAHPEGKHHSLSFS
Kinase reactions were run in a 384-well Greiner plate with 2% final DMSO concentration under the buffer conditions of 20 mM HEPES, pH 7.5, 10 mM MgCl2, 0.01% BSA, and 0.0005% Tween-20. The kinase reaction components were 2.5 nM JAK3, 1 μM SRCtide peptide and 1 uM ATP. Examples were tested in dose-response starting at 2 M (11 concentrations, 3-fold serial dilution, duplicate reactions). The reactions were incubated at room temperature for 40 minutes, then stopped by adding a 1:1 volume of 30 mM EDTA in 20 mM HEPES, pH 7.5 (15 mM EDTA final). After the reaction was stopped, the phosphorylated and unphosphorylated peptides were separated and quantified using a Caliper LC3000/EZ-Reader system and HTS Well Analyzer Software (Caliper, A PerkinElmer Company, Hopkinton, Mass.). GraFit (Erithacus Software Ltd., Horley, U.K.) was used to calculate inhibitor potency by fitting dose-response data to the 4-parameter logistical IC50 equation.

In assay [4] the test system is IL-12 stimulated STAT4 phosphorylation on Tyr693 (JAK2/TYK2). As to the kind of experiment: JAK2/TYK2 cellular target modulation: IL-12 stimulated phospho-STAT4 in PBMC. Conditions: human PBMC, IL-12 1.7 ng/ml; read-out: IL12-STAT4 IC50. The class given is cell-based.
Source text: as §1, §2

The target of assay [5] is Tyk-2 (Homo sapiens (Human), UniProt P29597). Put plainly: Tyk-2 enzyme activity assay (Thermo Fisher SelectScreen, Z-lyte). The class given is biochemical. The settings on record: read-out: Tyk-2 Inhibition IC50. As for the experimental part:
as §3, §4
TYK2: The 2×TYK2/Tyr 03 mixture is prepared in 50 mM HEPES pH 6.5, 0.01% BRIJ-35, 10 mM MgCl2, 1 mM EGTA, 0.02% NaN3. The final 10 μL Kinase Reaction consists of 3.75-15 ng TYK2 and 2 M Tyr 03 in 50 mM HEPES pH 7.0, 0.01% BRIJ-35, 10 mM MgCl2, 1 mM EGTA, 0.01% NaN3. After the one hour KinaseReaction incubation, 5 μL of a 1:4096 dilution of Development Reagent A is added.
as §5

Assay [6] concerns IFNγ stimulated STAT1 phosphorylation on Tyr701 (JAK1/2). As to the kind of experiment: JAK1/2 cellular target modulation: IFNγ stimulated phospho-STAT1 in PBMC. The class given is cell-based. Conditions: human PBMC, IFNγ 10 ng/ml; read-out: Infγ-STAT1 IC50.
Source text: as §1, §2

For assay [7], the target named is JAK2 (Homo sapiens (Human), UniProt O60674). Put plainly: JAK2 enzyme activity assay (Thermo Fisher SelectScreen, Z-lyte). The class given is biochemical. The settings on record: read-out: JAK2 Inhibition IC50. As for the experimental part:
as §3, §4
JAK2: The 2×JAK2/Tyr 06 mixture is prepared in 50 mM HEPES pH 7.5, 0.01% BRIJ-35, 10 mM MgCl2, 1 mM EGTA. The final 10 μL Kinase Reaction consists of 0.12-0.5 ng JAK2 and 2 M Tyr 06 in 50 mM HEPES pH 7.5, 0.01% BRIJ-35, 10 mM MgCl2, 1 mM EGTA. After the one hour Kinase Reaction incubation, 5 μL of a 1:128 dilution of Development Reagent A is added.
as §5

Sequence of JAK1 (P23458 whole entry): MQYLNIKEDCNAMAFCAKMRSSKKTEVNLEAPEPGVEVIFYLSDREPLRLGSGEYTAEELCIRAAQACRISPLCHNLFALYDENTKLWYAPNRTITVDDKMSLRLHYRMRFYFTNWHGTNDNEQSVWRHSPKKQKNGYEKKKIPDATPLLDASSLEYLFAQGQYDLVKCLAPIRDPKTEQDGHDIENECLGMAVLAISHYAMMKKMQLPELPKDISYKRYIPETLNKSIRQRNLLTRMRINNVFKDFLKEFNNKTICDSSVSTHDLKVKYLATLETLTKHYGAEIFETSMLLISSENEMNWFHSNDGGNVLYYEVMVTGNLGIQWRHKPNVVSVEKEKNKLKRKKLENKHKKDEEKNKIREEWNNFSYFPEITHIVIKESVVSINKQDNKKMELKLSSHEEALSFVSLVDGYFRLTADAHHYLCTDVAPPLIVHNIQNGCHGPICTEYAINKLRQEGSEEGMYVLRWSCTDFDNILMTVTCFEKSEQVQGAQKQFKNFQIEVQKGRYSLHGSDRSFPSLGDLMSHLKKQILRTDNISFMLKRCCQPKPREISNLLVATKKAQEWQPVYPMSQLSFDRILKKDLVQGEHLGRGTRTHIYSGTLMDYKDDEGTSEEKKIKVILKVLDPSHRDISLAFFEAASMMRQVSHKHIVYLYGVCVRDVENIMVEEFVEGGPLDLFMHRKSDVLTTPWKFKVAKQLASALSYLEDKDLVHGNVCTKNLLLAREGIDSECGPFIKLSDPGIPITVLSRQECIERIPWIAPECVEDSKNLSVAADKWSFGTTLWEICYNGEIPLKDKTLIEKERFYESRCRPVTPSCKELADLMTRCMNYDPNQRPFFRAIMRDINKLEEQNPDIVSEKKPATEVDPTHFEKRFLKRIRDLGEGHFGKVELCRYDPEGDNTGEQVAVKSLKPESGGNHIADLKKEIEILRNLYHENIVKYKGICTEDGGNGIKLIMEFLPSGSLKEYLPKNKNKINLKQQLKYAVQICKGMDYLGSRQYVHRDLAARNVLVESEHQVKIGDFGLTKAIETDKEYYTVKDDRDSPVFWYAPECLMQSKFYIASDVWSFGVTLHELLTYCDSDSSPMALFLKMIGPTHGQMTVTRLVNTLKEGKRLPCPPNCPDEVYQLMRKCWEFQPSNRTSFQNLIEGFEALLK
Sequence of Tyk-2 (P29597 whole entry): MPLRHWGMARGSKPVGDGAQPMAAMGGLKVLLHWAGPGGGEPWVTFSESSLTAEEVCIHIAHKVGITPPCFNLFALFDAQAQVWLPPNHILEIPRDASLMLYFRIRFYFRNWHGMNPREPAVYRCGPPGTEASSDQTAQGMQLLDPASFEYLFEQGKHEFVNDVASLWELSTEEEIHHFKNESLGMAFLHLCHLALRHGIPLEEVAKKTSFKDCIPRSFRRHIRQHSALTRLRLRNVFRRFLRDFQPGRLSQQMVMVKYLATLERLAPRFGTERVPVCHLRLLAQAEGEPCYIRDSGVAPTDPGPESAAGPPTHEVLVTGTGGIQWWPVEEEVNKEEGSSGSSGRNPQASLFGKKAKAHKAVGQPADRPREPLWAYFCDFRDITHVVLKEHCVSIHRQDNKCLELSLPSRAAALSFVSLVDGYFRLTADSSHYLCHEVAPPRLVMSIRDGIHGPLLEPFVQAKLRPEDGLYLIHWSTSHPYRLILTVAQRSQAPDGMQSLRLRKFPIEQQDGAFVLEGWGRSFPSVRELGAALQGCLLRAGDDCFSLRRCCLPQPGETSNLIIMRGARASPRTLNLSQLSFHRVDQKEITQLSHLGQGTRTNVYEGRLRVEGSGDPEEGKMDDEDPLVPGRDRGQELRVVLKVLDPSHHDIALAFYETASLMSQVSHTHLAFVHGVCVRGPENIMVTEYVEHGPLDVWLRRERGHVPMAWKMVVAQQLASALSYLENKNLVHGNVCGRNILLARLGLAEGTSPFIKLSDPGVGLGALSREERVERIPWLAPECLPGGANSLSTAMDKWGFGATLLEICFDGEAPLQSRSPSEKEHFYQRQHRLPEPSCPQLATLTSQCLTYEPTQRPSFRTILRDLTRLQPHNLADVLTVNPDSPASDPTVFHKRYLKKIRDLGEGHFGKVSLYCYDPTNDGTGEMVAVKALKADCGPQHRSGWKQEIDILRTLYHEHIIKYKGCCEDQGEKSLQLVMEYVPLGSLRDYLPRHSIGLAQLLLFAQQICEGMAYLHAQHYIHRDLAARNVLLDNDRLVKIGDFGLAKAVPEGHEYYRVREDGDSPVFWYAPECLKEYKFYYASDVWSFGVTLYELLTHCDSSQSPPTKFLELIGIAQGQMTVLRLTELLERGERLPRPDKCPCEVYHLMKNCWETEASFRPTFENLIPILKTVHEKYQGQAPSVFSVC
Sequence of JAK2 (O60674 whole entry): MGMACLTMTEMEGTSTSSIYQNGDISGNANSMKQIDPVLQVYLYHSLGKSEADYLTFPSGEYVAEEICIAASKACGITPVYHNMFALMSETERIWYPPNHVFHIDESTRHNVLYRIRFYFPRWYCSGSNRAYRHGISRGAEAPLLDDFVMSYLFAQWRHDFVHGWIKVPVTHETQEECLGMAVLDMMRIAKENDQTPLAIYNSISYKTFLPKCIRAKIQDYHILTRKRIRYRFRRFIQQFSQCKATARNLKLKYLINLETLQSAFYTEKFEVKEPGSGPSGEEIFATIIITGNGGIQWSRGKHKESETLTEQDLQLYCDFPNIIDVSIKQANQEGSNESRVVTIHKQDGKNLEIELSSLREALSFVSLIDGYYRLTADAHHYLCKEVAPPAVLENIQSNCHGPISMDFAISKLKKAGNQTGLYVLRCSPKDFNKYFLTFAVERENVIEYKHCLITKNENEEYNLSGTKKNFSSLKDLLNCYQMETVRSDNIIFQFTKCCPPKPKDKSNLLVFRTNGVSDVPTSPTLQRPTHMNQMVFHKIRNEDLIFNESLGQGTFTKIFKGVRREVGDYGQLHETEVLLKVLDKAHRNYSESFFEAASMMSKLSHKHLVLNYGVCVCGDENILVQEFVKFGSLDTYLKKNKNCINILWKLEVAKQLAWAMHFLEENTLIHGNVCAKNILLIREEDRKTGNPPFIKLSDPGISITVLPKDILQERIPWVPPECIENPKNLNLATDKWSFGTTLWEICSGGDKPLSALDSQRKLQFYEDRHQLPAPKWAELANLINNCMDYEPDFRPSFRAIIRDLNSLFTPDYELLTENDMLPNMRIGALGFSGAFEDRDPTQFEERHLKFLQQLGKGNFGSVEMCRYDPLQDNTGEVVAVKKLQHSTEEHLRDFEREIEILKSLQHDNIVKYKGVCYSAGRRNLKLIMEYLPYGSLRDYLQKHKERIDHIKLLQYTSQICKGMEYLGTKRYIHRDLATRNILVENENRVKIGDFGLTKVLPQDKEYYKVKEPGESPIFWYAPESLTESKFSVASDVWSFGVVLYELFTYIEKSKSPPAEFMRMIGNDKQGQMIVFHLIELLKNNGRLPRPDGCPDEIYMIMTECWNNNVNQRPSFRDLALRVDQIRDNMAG

With `N#CCC(=O)N1CCC[C@@H](Nc2c(-c3ccnc(N)n3)cnc3[nH]ccc23)C1` [Example 51, (R)-3-(3-((5-(2-aminopyrimidin-4-yl)-1H-pyrrolo[2,3-b]pyridin-4-yl)amino)piperidin-1-yl)-3-oxopropanenitrile], the IC50 in assay [1] is 100 to 1000 nM; in assay [2], ≤ 10 nM; in assay [3], ≤ 10 nM; in assay [4], > 1000 nM; in assay [5] it was 10 to 100 nM; in assay [6], 100 to 1000 nM. Also, the half-inhibitory concentration (IC50) in assay [7] was ≤ 10 nM.

Regarding `N#CCCN1CCC[C@@H](Nc2c(-c3ncco3)cnc3[nH]ccc23)C1` [Example 27, (R)-3-(3-((5-(oxazol-2-yl)-1H-pyrrolo[2,3-b]pyridin-4-yl)amino)piperidin-1-yl)propanenitrile], the IC50 in assay [1] is 100 to 1000 nM; in assay [2], 10 to 100 nM; in assay [3] it was ≤ 10 nM; in assay [4], > 1000 nM; in assay [5], 100 to 1000 nM; in assay [6] it was > 1000 nM. The IC50 in assay [7] lay in the range of 10 to 100 nM.

`Cc1cnc(-c2cnc3[nH]ccc3c2N[C@@H]2CCCN(C(=O)CC#N)C2)o1` [Example 36, (R)-3-(3-((5-(5-methyloxazol-2-yl)-1H-pyrrolo[2,3-b]pyridin-4-yl)amino)piperidin-1-yl)-3-oxopropanenitrile]: the IC50 in assay [1] was ≤ 100 nM; in assay [2], ≤ 10 nM; in assay [3], ≤ 10 nM; in assay [4], 100 to 1000 nM; in assay [5], ≤ 10 nM; in assay [6] it was ≤ 100 nM. The 50% inhibitory concentration (IC50) in assay [7] is ≤ 10 nM.

With `CS(=O)(=O)c1ccc(-c2cnc3[nH]ccc3c2N[C@@H]2CCCN(C(=O)CC#N)C2)nc1` [Example 55, (R)-3-(3-((5-(5-(methylsulfonyl)pyridin-2-yl)-1H-pyrrolo[2,3-b]pyridin-4-yl)amino)piperidin-1-yl)-3-oxopropanenitrile], the IC50 is ≤ 100 nM in assay [1]; ≤ 10 nM in assay [2]; ≤ 10 nM in assay [3]; > 1000 nM in assay [4]; ≤ 10 nM in assay [5]; 100 to 1000 nM in assay [6]. In addition, the IC50 in assay [7] fell in the range of 10 to 100 nM.

`CNC(=O)c1coc(-c2cnc3[nH]ccc3c2N[C@@H]2CCCN(C(=O)CC#N)C2)n1` [Example 33, (R)-2-(4-((1-(2-cyanoacetyl)piperidin-3-yl)amino)-1H-pyrrolo[2,3-b]pyridin-5-yl)-N-methyloxazole-4-carboxamide]: the IC50 is ≤ 100 nM in assay [1]; ≤ 10 nM in assay [2]; ≤ 10 nM in assay [3]; > 1000 nM in assay [4]; 10 to 100 nM in assay [5]; 100 to 1000 nM in assay [6]. Moreover, in assay [7], the 50% inhibitory concentration (IC50) was 10 to 100 nM.

On to `Cc1nc(-c2cnc3[nH]ccc3c2N[C@@H]2CCCN(C(=O)CC#N)C2)no1` [Example 19, (R)-3-(3-((5-(5-methyl-1,2,4-oxadiazol-3-yl)-1H-pyrrolo[2,3-b]pyridin-4-yl)amino)piperidin-1-yl)-3-oxopropanenitrile], for which the IC50 is 100 to 1000 nM in assay [1]; 10 to 100 nM in assay [2]; 10 to 100 nM in assay [3]; > 1000 nM in assay [4]; 100 to 1000 nM in assay [5]; > 1000 nM in assay [6]. Besides, in assay [7], the half-inhibitory concentration (IC50) lay in the range of 100 to 1000 nM.

For the molecule `N#CCC(=O)N1CCC[C@@H](Nc2c(-c3ncccn3)cnc3[nH]ccc23)C1` [Example 23, (R)-3-oxo-3-(3-((5-(pyrimidin-2-yl)-1H-pyrrolo[2,3-b]pyridin-4-yl)amino)piperidin-1-yl)propanenitrile], the IC50 in assay [1] was 100 to 1000 nM; in assay [2], 10 to 100 nM; in assay [3], 10 to 100 nM; in assay [4], > 1000 nM; in assay [5], 100 to 1000 nM; in assay [6], > 1000 nM. Also, the IC50 in assay [7] fell in the range of 100 to 1000 nM.

As to `CNC(=O)c1csc(-c2cnc3[nH]ccc3c2N[C@@H]2CCCN(C(=O)CC#N)C2)n1` [Example 35, (R)-2-(4-((1-(2-cyanoacetyl)piperidin-3-yl)amino)-1H-pyrrolo[2,3-b]pyridin-5-yl)-N-methylthiazole-4-carboxamide], the IC50 in assay [1] is 100 to 1000 nM; in assay [2], ≤ 10 nM; in assay [3], ≤ 10 nM; in assay [4], > 1000 nM; in assay [5] it was 10 to 100 nM; in assay [7] it was 10 to 100 nM.

As to `CNC(=O)c1cnc(-c2cnc3[nH]ccc3c2N[C@@H]2CCCN(C(=O)CC#N)C2)o1` [Example 39, (R)-2-(4-((1-(2-cyanoacetyl)piperidin-3-yl)amino)-1H-pyrrolo[2,3-b]pyridin-5-yl)-N-methyloxazole-5-carboxamide], the IC50 in assay [1] is > 1000 nM; in assay [2], 10 to 100 nM; in assay [3], ≤ 10 nM; in assay [5] it was 10 to 100 nM; in assay [6] it was > 1000 nM; in assay [7] it was ≤ 10 nM.

With `O[C@H]1CC[C@@H](Nc2c(-c3ccccn3)cnc3[nH]ccc23)C1` [Example 12, (1S,3R)-3-((5-(pyridin-2-yl)-1H-pyrrolo[2,3-b]pyridin-4-yl)amino)cyclopentan-1-ol], the IC50 was 100 to 1000 nM in assay [1]; 100 to 1000 nM in assay [2]; 10 to 100 nM in assay [3]; 100 to 1000 nM in assay [5]; > 1000 nM in assay [6]; 100 to 1000 nM in assay [7].
